Reference: ChEMBL document CHEMBL1153835, “Targeting the calcineurin pathway enhances ergosterol biosynthesis inhibitors against Trichophyton mentagrophytes in vitro and in a human skin infection model” (Antimicrob Agents Chemother, 2007)
In brackets after ≈: the same amount, converted by molar mass. Activity calls are given as the source filed them. The rule behind the calls is not given here.

What was measured:
[1] = test system: Zone of skin; assay: Toxicity to human skin assessed as damage of skin integrity at 2 fold MIC administered 30 mins post inoculation followed by once in every 2 days for 7 days by scanning electron microscopy; assay type: tissue-based
[2] = test system: Trichophyton mentagrophytes; assay: Antifungal activity against Trichophyton mentagrophytes DUMC112.02 by CLSI protocol; assay type: functional
[3] = test system: Trichophyton mentagrophytes; assay: Antifungal activity against Trichophyton mentagrophytes DUMC160.03 by CLSI protocol; assay type: functional
[4] = test system: Trichophyton mentagrophytes; assay: Antifungal activity against Trichophyton mentagrophytes DUMC160.03 infected in human skin at 2 fold MIC administered 30 mins post infection followed by once in every 2 days for 7 days by scanning electron microscopy relative to control; assay type: functional, organism-based

Structure (SMILES)	Activity [1]	MIC [2]	MIC80 [2]	MIC [3]	MIC80 [3]	Activity [4]
C=CC[C@@H]1/C=C(\C)C[C@H](C)C[C@H](OC)[C@H]2O[C@@](O)(C(=O)C(=O)N3CCCC[C@H]3C(=O)O[C@H](/C(C)=C/[C@@H]3CC[C@@H](O)[C@H](OC)C3)[C@H](C)[C@@H](O)CC1=O)[C@H](C)C[C@@H]2OC [TACROLIMUS ANHYDROUS]	Non-toxic	1 µg/mL (≈ 1.24 µM)	1 µg/mL (≈ 1.24 µM)	1 µg/mL (≈ 1.24 µM)	1 µg/mL (≈ 1.24 µM)	inactive
OC(Cn1cncn1)(Cn1cncn1)c1ccc(F)cc1F [FLUCONAZOLE]	Non-toxic	8 µg/mL (≈ 26.1 µM)	16 µg/mL (≈ 52.2 µM)	8 µg/mL (≈ 26.1 µM)	16 µg/mL (≈ 52.2 µM)	Active
C/C=C/C[C@@H](C)[C@@H](O)[C@H]1C(=O)N[C@@H](CC)C(=O)N(C)CC(=O)N(C)[C@@H](CC(C)C)C(=O)N[C@@H](C(C)C)C(=O)N(C)[C@@H](CC(C)C)C(=O)N[C@@H](C)C(=O)N[C@H](C)C(=O)N(C)[C@@H](CC(C)C)C(=O)N(C)[C@@H](CC(C)C)C(=O)N(C)[C@@H](C(C)C)C(=O)N1C [CYCLOSPORINE]	–	2 µg/mL (≈ 1.66 µM)	2 µg/mL (≈ 1.66 µM)	1 µg/mL (≈ 0.832 µM)	8 µg/mL (≈ 6.65 µM)	–
CN(C/C=C/C#CC(C)(C)C)Cc1cccc2ccccc12 [TERBINAFINE]	Non-toxic	0.004 µg/mL (≈ 0.0137 µM)	–	0.0312 µg/mL (≈ 0.107 µM)	–	Active
